Read-outs that look alike come from different tables or passages of the source. Non-standard residues stand in square brackets, D forms with d. Residues, ends and D or L forms follow the SMILES beside them. *: point of attachment. DOTA = O=C(O)CN1CCN(CC(=O)O)CCN(CC(=O)*)CCN(CC(=O)O)CC1; pY = N[C@@H](Cc1ccc(OP(=O)(O)O)cc1)C(=O)O; Nle = CCCC[C@H](N)C(=O)O
How the values were obtained:
[1] = Biodistribution of ^111In-labeled peptides in B16-F1 melanoma-bearing mice; type: in vivo, mouse (B6D2F1); settings: female, iv, total radioactivity, ^111In-labeled peptide, 185 kBq i.v., mean ± SEM of three experiments, n = 5 animals each
Experimental: (§1) About 5 × 10^5 B16-F1 cells were implanted subcutaneously to female B6D2F1 mice (C57BL/6 × DBA/2F1 hybrids; breeding pairs obtained from IFFA-CREDO, France). Seven days later, 185 kBq of ^111In-labeled ligand in 200 µL PBS/0.1% BSA were injected intravenously into the lateral tail vein of each mouse. Control mice were injected with a mixture of the tracer and 50 µg α-MSH to determine the non-specific uptake of radioligand. The animals were sacrificed 4, 24, and 48 h postinjection, dissected, and the tissues of interest collected, rinsed of excess blood, and weighed. The radioactivity emitted by each organ was measured in a γ-counter to determine the tissue uptake as percentage of the injected dose (ID) per gram of tissue. The total of injected radioactivity per animal was determined by extrapolation from the counts of a standard collected from the injection solution for each animal. Urine samples were collected at 10, 15, and 20 min and 4 h after injection and kept frozen at −80°C until use. Urine (1 vol) was mixed with methanol (2 vol) to precipitate proteins, and the supernatant was analyzed by RP-HPLC/γ-detection, as described in Ref. ([12]).
(§2) Results are expressed as means ± SEM, unless otherwise stated. The statistical evaluation of data was performed using the one- or two-way ANOVA test. When significant overall effects were obtained by ANOVA, multiple comparisons were made with the Bonferroni correction. P < 0.05 was considered statistically significant. The area under the curve (AUC) was calculated with the GraphPad Prism 6 software for the indicated period of time, using the mean tissue uptake value at each time point.

[2] = test system: B16-F1 tumor-bearing mice; experiment: as above; type: in vivo, mouse (B6D2F1)
Experimental: as §1, §2

MC1R (B16-F1 cells) = molecular target: T1, MC1R (B16-F1 cells) (Mus musculus, UniProt Q01727); experiment: Competition binding assay with [^125I]-NDP-MSH, mouse B16-F1 melanoma cells
T1 construct: endogenous in cells; host or cells: mouse B16-F1 melanoma cells
Experimental: (§3) Triplicates of 100-µL volumes of B16-F1 or HBL cell suspensions adjusted to 4 × 10^6/mL were incubated in 96-well U-bottom microplates (Falcon 3077). The binding medium consisted of MEM with Earle’s salts, 0.2% BSA, and 0.3 mM 1,10-phenanthroline. This binding medium was called mouse binding medium (MBM). Triplicates of competitor peptide solution (50 µL) yielding final concentrations ranging from 1 × 10^−6 to 1 × 10^−12 M were added. [^125I]NDP-MSH (50,000 cpm) in 50 µL was finally added to each well. The plates were incubated at 15°C for 3 h for B16-F1 cells and at 37°C for 2 h for HBL cells. The incubation was stopped by covering the plates with ice for 10 min. A cell harvester was used to collect cell-bound radioactivity on filters (Packard Unifilter-96 GF/B). The collected radioactivity was counted on a TopCount scintillation counter (Packard) after addition of 50 µL Microscint-20 scintillation cocktail (Perkin Elmer). The IC50 values were calculated with the Prism 6 software (GraphPad Software Inc., San Diego CA, USA).
(§4) The binding affinity of the peptides to MC1R was assessed by competition binding assays using [^125I]-NDP-MSH as radioligand and both murine B16-F1 and human HBL cells.

MC1R (HBL cells) = molecular target: T2, MC1R (HBL cells) (Homo sapiens, UniProt Q01726); experiment: Competition binding assay with [^125I]-NDP-MSH, human HBL melanoma cells
T2 construct: endogenous in cells; host or cells: human HBL melanoma cell line
Experimental: as §3, §4

[3] = B6D2F1 (C57BL/6 × DBA/2F1 hybrids), mouse, blood, read-out: Blood uptake
[4] = B6D2F1 (C57BL/6 × DBA/2F1 hybrids), mouse, muscle, read-out: Muscle uptake
[5] = B6D2F1 (C57BL/6 × DBA/2F1 hybrids), mouse, skin, read-out: Skin uptake
[6] = B6D2F1 (C57BL/6 × DBA/2F1 hybrids), mouse, tumor, read-out: Tumor uptake
[7] = B6D2F1, mouse, bone, read-out: Bone uptake
[8] = B6D2F1, mouse, heart, read-out: Heart uptake
[9] = B6D2F1, mouse, kidney, read-out: Kidney uptake
[10] = B6D2F1, mouse, liver, read-out: Liver uptake
[11] = B6D2F1, mouse, lung, read-out: Lung uptake
[12] = B6D2F1, mouse, pancreas, read-out: Pancreas uptake
[13] = B6D2F1, mouse, small intestines, read-out: Small intestines uptake
[14] = B6D2F1, mouse, spleen, read-out: Spleen uptake
[15] = B6D2F1, mouse, stomach, read-out: Stomach uptake
[16] = ^111In-labeled peptide, 185 kBq i.v., 4 h, mean ± SEM of three experiments, n = 5 animals each

T2 sequence (Q01726 whole entry): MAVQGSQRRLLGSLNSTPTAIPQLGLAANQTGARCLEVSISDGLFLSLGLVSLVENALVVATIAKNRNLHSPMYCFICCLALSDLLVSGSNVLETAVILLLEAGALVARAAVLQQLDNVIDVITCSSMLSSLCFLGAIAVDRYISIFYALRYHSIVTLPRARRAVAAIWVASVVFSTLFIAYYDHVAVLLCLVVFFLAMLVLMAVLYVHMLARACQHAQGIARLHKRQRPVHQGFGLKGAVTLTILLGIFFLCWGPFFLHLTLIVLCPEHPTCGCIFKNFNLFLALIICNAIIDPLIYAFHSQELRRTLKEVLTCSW
T1 sequence (Q01727 whole entry): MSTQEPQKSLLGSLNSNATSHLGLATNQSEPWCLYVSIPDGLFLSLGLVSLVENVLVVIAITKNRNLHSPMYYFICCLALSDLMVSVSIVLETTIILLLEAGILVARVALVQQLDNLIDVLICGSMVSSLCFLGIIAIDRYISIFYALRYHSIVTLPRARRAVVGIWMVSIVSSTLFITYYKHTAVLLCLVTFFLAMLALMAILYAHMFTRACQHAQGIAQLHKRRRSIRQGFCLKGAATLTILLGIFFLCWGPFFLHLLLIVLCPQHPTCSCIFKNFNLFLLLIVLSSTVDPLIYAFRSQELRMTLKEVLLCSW

SMILES: CCCC[C@H](NC(=O)[C@H](Cc1ccc(OP(=O)(O)O)cc1)NC(=O)CNC(=O)CN1CCN(CC(=O)O)CCN(CC(=O)O)CCN(CC(=O)O)CC1)C(=O)N[C@@H](CC(=O)O)C(=O)N[C@@H](Cc1c[nH]cn1)C(=O)N[C@H](Cc1ccccc1)C(=O)N[C@@H](CCCNC(=N)N)C(=O)N[C@@H](Cc1c[nH]c2ccccc12)C(N)=O [DOTA-Phospho-MSH2-9, DOTA-Gly-Tyr(P)-Nle-Asp-His-D-Phe-Arg-Trp-NH2] ({DOTA}-G[pY][Nle]DH[dF]RW-NH2)
- tissue uptake at 4 h [1, 3]: 0.02 %ID/g
- tissue uptake at 24 h [1, 3]: 0.01 %ID/g
- tissue uptake at 48 h ([1]; B6D2F1 (C57BL/6 × DBA/2F1 hybrids), mouse, bone, read-out: Bone uptake): 0.06 ± 0.01 %ID/g
- tissue uptake at 4 h [1, 4]: 0.02 %ID/g
- tissue uptake at 24 h [1, 4]: 0.02 %ID/g
- tissue uptake at 48 h [1, 4]: 0.02 %ID/g
- tissue uptake at 4 h [1, 5]: 0.12 ± 0.03 %ID/g
- tissue uptake at 24 h [1, 5]: 0.07 ± 0.02 %ID/g
- tissue uptake at 48 h [1, 5]: 0.08 ± 0.02 %ID/g
- tissue uptake at 24 h [1, 6]: 2.92 ± 0.12 %ID/g
- tissue uptake at 48 h [1, 6]: 1.21 ± 0.18 %ID/g
- tissue uptake at 4 h [1, 7]: 0.08 ± 0.01 %ID/g
- tissue uptake at 24 h [1, 7]: 0.11 ± 0.02 %ID/g
- tissue uptake at 4 h [1, 8]: 0.04 %ID/g
- tissue uptake at 24 h [1, 8]: 0.03 %ID/g
- tissue uptake at 48 h [1, 8]: 0.03 %ID/g
- tissue uptake at 24 h [1, 9]: 1.88 ± 0.11 %ID/g
- tissue uptake at 48 h [1, 9]: 1.04 ± 0.07 %ID/g
- tissue uptake at 4 h [1, 10]: 0.2 ± 0.01 %ID/g
- tissue uptake at 24 h [1, 10]: 0.16 ± 0.02 %ID/g
- tissue uptake at 48 h [1, 10]: 0.12 ± 0.01 %ID/g
- tissue uptake at 4 h [1, 11]: 0.07 ± 0.02 %ID/g
- tissue uptake at 24 h [1, 11]: 0.04 %ID/g
- tissue uptake at 48 h [1, 11]: 0.03 %ID/g
- tissue uptake at 4 h [1, 12]: 0.05 ± 0.01 %ID/g
- tissue uptake at 24 h [1, 12]: 0.03 %ID/g
- tissue uptake at 48 h [1, 12]: 0.03 %ID/g
- tissue uptake at 4 h [1, 13]: 0.11 ± 0.03 %ID/g
- tissue uptake at 24 h [1, 13]: 0.06 %ID/g
- tissue uptake at 48 h [1, 13]: 0.06 %ID/g
- tissue uptake at 4 h [1, 14]: 0.11 ± 0.01 %ID/g
- tissue uptake at 24 h [1, 14]: 0.1 ± 0.01 %ID/g
- tissue uptake at 48 h [1, 14]: 0.09 ± 0.01 %ID/g
- tissue uptake at 4 h [1, 15]: 0.17 ± 0.08 %ID/g
- tissue uptake at 24 h [1, 15]: 0.16 ± 0.02 %ID/g
- tissue uptake at 48 h [1, 15]: 0.07 %ID/g
- Tumor-to-kidney ratio compared with other peptides (in words) ([2]; AUC (4–48 h) or overall comparison): best tumor-to-kidney ratio of all linear MSH peptides so far investigated
- Kidney uptake [2, 16]: 2.68 ± 0.18 %ID/g
- Tumor uptake [2, 16]: 7.33 ± 0.47 %ID/g
- IC50 (MC1R (B16-F1 cells)): 2.32 ± 0.8 nM
- IC50 (MC1R (HBL cells)): 3.03 ± 0.59 nM
